Results published in patent EP0391462A1, “Synergistic compositions containing ketanserin” (JANSSEN PHARMACEUTICA N.V., priority 1989, dated 1990).

Columns and labels:
[1] = system: patients with moderate, uncomplicated hypertension; settings: difference between treated and untreated patients, mean ± standard error; end of treatment period, 1-2 hours after last dose, seated; ketanserin 40 mg b.i.d., captopril 50 mg b.i.d.
Procedure: The effect of a combination of the compound ketanserin (I) and an ACE inhibitor, captopril, on the lowering of blood pressure was investigated in a double-blind randomized cross-over study according to a latin square design.
Adult (≧18 years) patients with moderate, uncomplicated hypertension (105 mmHg ≦ DBP ≦ 115 mmHg at the end of a 1 month placebo wash-out period) were randomly assigned to: - placebo (1 tab q.i.d.); - placebo (1 tab b.i.d.) + ketanserin (1 tab 40 mg b.i.d.); - placebo (1 tab b.i.d.) + captopril (1 tab 50 mg b.i.d.); - ketanserin (1 tab 40 mg b.i.d.) + captopril (1 tab 50 mg b.i.d.).
At the end of each treatment period (1-2 hours after the last dose), blood pressure (by a mercury sphygmomanometer) and heart rate (by the palpatory method over a 30˝ period) of patients seated for 10′ were recorded by the same investigator during 3 measurements at 2′ intervals.

[2] = system: patients with mild to moderate, uncomplicated, essential hypertension; format: in vivo; settings: absolute value, mean ± standard error; end of 3 month monotherapy (ketanserin 2 weeks 20 mg b.i.d. then 10 weeks 40 mg b.i.d., 9 pts; enalapril 12 weeks 10 mg b.i.d., 7 pts)
Procedure: The effect of a combination of the compound ketanserin (I) and enalapril on the lowering of blood pressure was investigated in a randomized double-blind parallel group study. Elderly (≧ 50 years) patients with mild to moderate, uncomplicated, essential hypertension (95 mm Hg ≦ DBP ≦ 105 mm Hg at the end of a 3 month period on double blind monotherapy) received ketanserin (1 tab 40 mg b.i.d.) + enalapril (1 tab 10 mg b.i.d.). […] Bloodpressure (SBP, DBP) and heart rate (HR) (mean values ± standard error) are in mm Hg and b.p.m.

Compound | difference of diastolic blood pressure (DBP) [1] [mmHg] | difference of systolic blood pressure (SBP) [1] [mmHg] | DBP, End Monotherapy Phase [2] [mm Hg] | SBP, End Monotherapy Phase [2] [mm Hg]
C[C@H](CS)C(=O)N1CCC[C@H]1C(=O)O [Captopril, captopril] | -8.75±1.3 | -8.75±1.96 | – | –
CCOC(=O)[C@H](CCc1ccccc1)N[C@@H](C)C(=O)N1CCC[C@H]1C(=O)O [Enalapril, enalapril] | – | – | 101.42±10.07 | 160.0±5.77
O=C(c1ccc(F)cc1)C1CCN(CCn2c(=O)[nH]c3ccccc3c2=O)CC1 [Ketanserin, 3-[2-[4-(4-fluorobenzoyl)-1-piperidinyl]ethyl]-2,4(1H,3H)-quinazolinedione] | -7.92±1.3 | -8.33±2.33 | 102.22±5.65 | 148.88±13.64
